Experimental data: article PMC9031226, “Preclinical Therapeutic Assessment of a New Chemotherapeutics [Dichloro(4,4’-Bis(2,2,3,3-Tetrafluoropropoxy) Methyl)-2,2’-Bipryridine) Platinum] in an Orthotopic Patient-Derived Xenograft Model of Triple-Negative Breast Cancers” (Pharmaceutics, 2022)

Assays:
Type in all cases: in vivo
Settings in all cases: NSG mice
MDA-MB-231 cells = experiment: Cell line-derived xenograft (CDX) model, tumor growth
Description: (§1) The procedures for the establishment of breast cancer-bearing xenograft models were modified from a previous publication and approved by the Taipei Medical University (TMU) Institutional Animal Care and Use Committee (IACUC No. LAC-2020-0175). Overall, 4- to 6-week-old NOD.Cg-PrkdcscidIl2rgtm1Wjl/SzJ (NSG) female mice purchased from National Laboratory Animal Center (Taipei, Taiwan) were housed in specific pathogen-free rooms with ad libitum feeding and 12 h light–dark cycle. After a week of acclimatization, 2 × 10^6 MDA-MB-231 cells suspended in 1:1 ratio of phosphate-buffered saline plus Matrigel® Matrix (Cat. 356237; Corning Inc., New York, NY, USA) were subcutaneously injected on the right flank of each mouse. […] To monitor tumor growth in the models, tumor diameter was measured using an electronic caliper and values were applied on the equation: width^2 × length × 0.52 to estimate their tumor volume. All mice were sacrificed on day 28 after treatment. Plasma, tumors and major organs (heart, liver, kidney, spleen and lung) were collected for toxicity assessment and metastasis evaluation.

[1] = CDX model: body and organ weight, CBC and blood biochemistry
Description: as §1, with “evaluation. Whole blood harvested from sacrificed animals was collected in EDTA-containing or heparin-containing tubes for CBC and biochemical analysis. For biochemical analysis, whole blood was centrifuged under 2000× g for 5 min to separate plasma from blood cells and then plasma was kept and stored in a −20 °C fridge until further analysis. Concentrations of albumin, total protein, aspartate aminotransferase (AST), alanine aminotransferase (ALT) and creatinine (CREA) in plasma, numbers of red blood cells (RBC), platelets (PLT), white blood cells (WBC) and hemoglobin (HGB) concentration in EDTA-anticoagulated whole blood were determined by medical laboratory scientists in Taipei Medical University Hospital (Taipei, Taiwan).” for “evaluation.”

[2] = PDX model: body and organ weight, CBC and blood biochemistry
From the text: The procedures for the establishment of breast cancer-bearing xenograft models were modified from previous publications and approved by the Taipei Medical University (TMU) Institutional Animal Care and Use Committee (IACUC No. LAC- 2021-0546) and the Joint Institutional Review Board of Taipei Medical University (N201812005). Overall, 4- to 6-week-old NOD.Cg-PrkdcscidIl2rgtm1Wjl/SzJ (NSG) female mice purchased from BioLASCO Taiwan Co., Ltd. (Taipei, Taiwan) were housed in specific pathogen-free rooms with ad libitum feeding and 12 h light–dark cycle. Patient-derived TNBC tumors were microscopically considered for a hypervascular background and frequent mitosis features, and triple-negative results for estrogen receptor, progesterone receptor and human epidermal growth factor receptor 2 (HER2). After a week of acclimatization, patient-derived TNBC tumors dissected into 3 × 3 × 3 mm^3 were implanted using puncture needle in fat pads between the third and fourth mammary glands for each mouse. […] Tumor growth curves were generated by measuring tumor diameters and then calculating based on the same equation described above. Finally, the mice were sacrificed on day 23 after the first dose of treatments. Plasma, tumors and major organs (heart, liver, kidney, spleen and lung) were collected for toxicity assessment and metastasis evaluation. Whole blood harvested from sacrificed animals was collected in EDTA-containing or heparin-containing tubes for CBC and biochemical analysis. For biochemical analysis, whole blood was centrifuged under 2000× g for 5 min to separate plasma from blood cells and then plasma was kept and stored in a −20 °C fridge until further analysis. Concentrations of albumin, total protein, aspartate aminotransferase (AST), alanine aminotransferase (ALT) and creatinine (CREA) in plasma, numbers of red blood cells (RBC), platelets (PLT), white blood cells (WBC) and hemoglobin (HGB) concentration in EDTA-anticoagulated whole blood were determined by medical laboratory scientists in Taipei Medical University Hospital (Taipei, Taiwan).

[3] = 5 mg/kg i.p. weekly x4, day 28, PBS 1412.72 ± 120.85
[4] = 2.11 mg/kg i.p. weekly x4, day 28
[5] = 5 mg/kg i.p. weekly x4, day 28, reference interval 0.2–0.5
[6] = 5 mg/kg i.p. weekly x4, day 28, reference interval 4–10.9
[7] = 5 mg/kg i.p. weekly x4, day 28, reference interval 7.75–9.61
[8] = 5 mg/kg i.p. weekly x4, day 28, reference interval 13–39
[9] = 5 mg/kg i.p. weekly x4, day 28, reference interval 63–227
[10] = 5 mg/kg i.p. weekly x4, day 28, reference interval 853–1951
[11] = 5 mg/kg i.p. weekly x4, day of sacrifice (day 28)
[12] = 2.11 mg/kg i.v. weekly x4, day 23
[13] = 5 mg/kg i.v. weekly x4, day 23, reference interval 0.2–0.5
[14] = 5 mg/kg i.v. weekly x4, day 23, reference interval 13–39
[15] = 5 mg/kg i.v. weekly x4, day 23, reference interval 63–227
[16] = 5 mg/kg i.v. weekly x4, day 23, reference interval 853–1951
[17] = 5 mg/kg i.v. weekly x4, day of sacrifice (day 23)

N.N.[Cl][Pt][Cl] [CDDP, Cis-diamineplatinum(II) dichloride]
average tumor volume (MDA-MB-231 cells; 2.11 mg/kg i.p. weekly x4, day 28, PBS 1412.72 ± 120.85): around 821.66 ± 133.75 mm^3
average tumor volume (MDA-MB-231 cells; [3]): ~540.23 ± 133.20 mm^3
Heart [1, 4]: 0.14 ± 0.04 g
Kidney [1, 4]: 0.31 ± 0.02 g
Liver [1, 4]: 1.04 ± 0.08 g
Lung [1, 4]: 0.23 ± 0.04 g
Spleen [1, 4]: 0.03 ± 0.00 g
CREA ([1]; 2.11 mg/kg i.p. weekly x4, day 28, reference interval 0.2–0.5): 0.20 ± 0.00 mg/dL
WBC ([1]; 2.11 mg/kg i.p. weekly x4, day 28, reference interval 4–10.9): 3.48 ± 0.13 ^§ 10^3/µL
RBC ([1]; 2.11 mg/kg i.p. weekly x4, day 28, reference interval 7.75–9.61): 9.25 ± 0.33 10^6/µL
ALT ([1]; 2.11 mg/kg i.p. weekly x4, day 28, reference interval 13–39): 34.25 ± 9.18 U/L
AST ([1]; 2.11 mg/kg i.p. weekly x4, day 28, reference interval 63–227): 120.3 ± 20.82 U/L
PLT ([1]; 2.11 mg/kg i.p. weekly x4, day 28, reference interval 853–1951): 867.3 ± 97.6 10^3/µL
Body weight ([1]; 2.11 mg/kg i.p. weekly x4, day of sacrifice (day 28)): 24.08 ± 2.89 g
Heart ([1]; 5 mg/kg i.p. weekly x4, day 28): 0.13 ± 0.01 g
Kidney ([1]; 5 mg/kg i.p. weekly x4, day 28): 0.29 ± 0.02 g
Liver ([1]; 5 mg/kg i.p. weekly x4, day 28): 0.98 ± 0.10 g
Lung ([1]; 5 mg/kg i.p. weekly x4, day 28): 0.26 ± 0.13 g
Spleen ([1]; 5 mg/kg i.p. weekly x4, day 28): 0.13 ± 0.18 g
CREA [1, 5]: 0.23 ± 0.05 mg/dL
WBC [1, 6]: 6.33 ± 1.59 10^3/µL
RBC [1, 7]: 9.18 ± 0.46 10^6/µL
ALT [1, 8]: 29.00 ± 3.46 U/L
AST [1, 9]: 172.3 ± 44.28 U/L
PLT [1, 10]: 927.80 ± 223.4 10^3/µL
Body weight [1, 11]: 22.20 ± 2.12 g
Kidney [2, 12]: 0.33 ± 0.03 g
Liver [2, 12]: 1.51 ± 0.12 g
Lung [2, 12]: 0.23 ± 0.01 g
Spleen [2, 12]: 0.22 ± 0.07 g
CREA ([2]; 2.11 mg/kg i.v. weekly x4, day 23, reference interval 0.2–0.5): 0.20 ± 0.00 mg/dL
WBC ([2]; 2.11 mg/kg i.v. weekly x4, day 23, reference interval 4–10.9): 6.09 ± 1.32 * 10^3/µL
RBC ([2]; 2.11 mg/kg i.v. weekly x4, day 23, reference interval 7.75–9.61): 7.41 ± 0.51 10^6/µL
ALT ([2]; 2.11 mg/kg i.v. weekly x4, day 23, reference interval 13–39): 14.00 ± 4.90 U/L
AST ([2]; 2.11 mg/kg i.v. weekly x4, day 23, reference interval 63–227): 207.00 ± 101.18 U/L
PLT ([2]; 2.11 mg/kg i.v. weekly x4, day 23, reference interval 853–1951): 946.75 ± 150.28 10^3/µL
Body weight ([2]; 2.11 mg/kg i.v. weekly x4, day of sacrifice (day 23)): 24.06 ± 2.18 g
Heart ([2]; 5 mg/kg i.v. weekly x4, day 23): 0.11 ± 0.02 g
Kidney ([2]; 5 mg/kg i.v. weekly x4, day 23): 0.35 ± 0.04 g
Liver ([2]; 5 mg/kg i.v. weekly x4, day 23): 1.63 ± 0.22 g
Lung ([2]; 5 mg/kg i.v. weekly x4, day 23): 0.23 ± 0.03 g
Spleen ([2]; 5 mg/kg i.v. weekly x4, day 23): 0.17 ± 0.04 g
CREA [2, 13]: 0.15 ± 0.10 mg/dL
ALT [2, 14]: 13.00 ± 3.27 U/L
AST [2, 15]: 137.00 ± 34.79 U/L
PLT [2, 16]: 877.00 ± 170.99 10^3/µL
Body weight [2, 17]: 25.48 ± 0.98 g

FC(F)C(F)(F)COCc1ccnc(-c2cc(COCC(F)(F)C(F)F)ccn2)c1.[Cl][Pt][Cl] [TFBPC]
tumor weight (MDA-MB-231 cells; 5 mg/kg i.p. weekly x4, day 28): ~ 0.3 g
average tumor volume (MDA-MB-231 cells; [3]): ~413.03 ± 87.50 mm^3
Heart ([1]; 5 mg/kg i.p. weekly x4, day 28): 0.14 ± 0.04 g
Kidney ([1]; 5 mg/kg i.p. weekly x4, day 28): 0.31 ± 0.02 g
Liver ([1]; 5 mg/kg i.p. weekly x4, day 28): 1.04 ± 0.08 g
Lung ([1]; 5 mg/kg i.p. weekly x4, day 28): 0.23 ± 0.04 g
Spleen ([1]; 5 mg/kg i.p. weekly x4, day 28): 0.03 ± 0.00 g
CREA [1, 5]: 0.20 ± 0.00 mg/dL
Albumin ([1]; 5 mg/kg i.p. weekly x4, day 28, reference interval 3.0–3.9): 3.20 ± 0.29 g/dL
WBC [1, 6]: 5.70 ± 1.54 10^3/µL
Total protein ([1]; 5 mg/kg i.p. weekly x4, day 28, reference interval 4.5–5.5): 4.98 ± 0.17 g/dL
RBC [1, 7]: 9.85 ± 0.30 10^6/µL
HGB ([1]; 5 mg/kg i.p. weekly x4, day 28, reference interval 12.20–13.90): 14.9 ± 0.53 g/dL
ALT [1, 8]: 38.75 ± 7.09 U/L
AST [1, 9]: 190.0 ± 65.17 U/L
PLT [1, 10]: 975 ± 205.8 10^3/µL
Body weight [1, 11]: 23.62 ± 1.56 g
Kidney ([2]; 5 mg/kg i.v. weekly x4, day 23): 0.36 ± 0.02 g
Liver ([2]; 5 mg/kg i.v. weekly x4, day 23): 1.58 ± 0.11 g
Lung ([2]; 5 mg/kg i.v. weekly x4, day 23): 0.24 ± 0.02 g
Spleen ([2]; 5 mg/kg i.v. weekly x4, day 23): 0.30 ± 0.05 g
CREA [2, 13]: 0.10 ± 0.12 mg/dL
Albumin ([2]; 5 mg/kg i.v. weekly x4, day 23, reference interval 3.0–3.9): 2.93 ± 0.40 g/dL
Total protein ([2]; 5 mg/kg i.v. weekly x4, day 23, reference interval 4.5–5.5): 4.6 ± 0.32 g/dL
RBC ([2]; 5 mg/kg i.v. weekly x4, day 23, reference interval 7.75–9.61): 6.97 ± 0.58 10^6/µL
HGB ([2]; 5 mg/kg i.v. weekly x4, day 23, reference interval 12.20–13.90): 11.8 ± 0.56 g/dL
ALT [2, 14]: 14.75 ± 4.50 U/L
AST [2, 15]: 131.75 ± 31.70 U/L
PLT [2, 16]: 872.75 ± 81.04 10^3/µL
Body weight [2, 17]: 25.72 ± 1.22 g
